Laboratory results: patent US10173971B2, “Picolinamides with fungicidal activity” (DOW AGROSCIENCES LLC, priority 2014, dated 2019)
Like-named read-outs stand apart in the source and are kept apart here.

How the values were obtained:
Puccinia triticina = assay: Fungicidal activity: wheat brown rust (PUCCRT), wheat seedlings, booth sprayer to run-off or track spray; assay type: in vivo; conditions: for pest or weed control at 121.5 g/ha: Low-Volume Cereal Activity at 121.5 g/H; for pest or weed control at 100 ppm: High-Volume Cereal Activity at 100 ppm
Protocol: All fungicides were evaluated using the aforementioned method for their activity vs. all target diseases. Wheat leaf blotch and brown rust activity were also evaluated using track spray applications, in which case the fungicides were formulated as EC formulations, containing 0.1% Trycol 5941 in the spray solutions. Wheat plants (variety Yuma) were grown from seed in a greenhouse in 50% mineral soil/50% soil-less Metro mix until the first leaf was fully emerged, with 7-10 seedlings per pot. These plants were inoculated with an aqueous spore suspension of Puccinia triticina either prior to or after fungicide treatments. […] The plants were then transferred to a greenhouse set at 24° C. for disease to develop. Fungicide formulation, application and disease assessment followed the procedures as described in the Example A.

Zymoseptoria tritici = assay: Fungicidal activity: leaf blotch of wheat (SEPTTR), wheat seedlings, booth sprayer to run-off or track spray; assay type: in vivo; conditions: for pest or weed control at 121.5 g/ha: Low-Volume Cereal Activity at 121.5 g/H; for pest or weed control at 100 ppm: High-Volume Cereal Activity at 100 ppm
Protocol: All fungicides were evaluated using the aforementioned method for their activity vs. all target diseases. Wheat leaf blotch and brown rust activity were also evaluated using track spray applications, in which case the fungicides were formulated as EC formulations, containing 0.1% Trycol 5941 in the spray solutions. Wheat plants (variety Yuma) were grown from seed in a greenhouse in 50% mineral soil/50% soil-less Metro mix until the first leaf was fully emerged, with 7-10 seedlings per pot. These plants were inoculated with an aqueous spore suspension of Zymoseptoria tritici either prior to or after fungicide treatments. After inoculation the plants were kept in 100% relative humidity (one day in a dark dew chamber followed by two to three days in a lighted dew chamber at 20° C.) to permit spores to germinate and infect the leaf. The plants were then transferred to a greenhouse set at 20° C. for disease to develop. When disease symptoms were fully expressed on the 1st leaves of untreated plants, infection levels were assessed on a scale of 0 to 100 percent disease severity. Percent disease control was calculated using the ratio of disease severity on treated plants relative to untreated plants.

[1] = 24 h, 1 Day Protectant, read-out: PUCCRT 1DP
[2] = 72 h, 3 Day Curative, read-out: PUCCRT 3DC
[3] = 24 h, 1 Day Protectant, read-out: SEPTTR 1DP
[4] = 72 h, 3 Day Curative, read-out: SEPTTR 3DC
[5] = 3DC (Day Curative), read-out: PUCCRT 3DC
[6] = 3DC (Day Curative), read-out: SEPTTR 3DC

| Structure (SMILES) | pest or weed control at 121.5 g/ha (Puccinia triticina; [1]) [%] | pest or weed control at 121.5 g/ha (Puccinia triticina; [2]) [%] | pest or weed control at 121.5 g/ha (Zymoseptoria tritici; [3]) [%] | pest or weed control at 121.5 g/ha (Zymoseptoria tritici; [4]) [%] | pest or weed control at 100 ppm (Puccinia triticina; [1]) [%] | pest or weed control at 100 ppm (Puccinia triticina; [5]) [%] | pest or weed control at 100 ppm (Zymoseptoria tritici; [6]) [%] | pest or weed control at 100 ppm (Zymoseptoria tritici; [3]) [%] |
| --- | --- | --- | --- | --- | --- | --- | --- | --- |
| COc1ccnc(C(=O)N[C@@H](C)C(=O)O[C@@H](C)[C@H](Cc2ccccc2)c2ccccc2)c1OCOC(C)=O [compound 195] | 80 to 100 | 80 to 100 | 80 to 100 | 80 to 100 |  |  |  |  |
| COC(=O)[C@@H](Cc1ccccc1)[C@H](C)OC(=O)[C@H](C)NC(=O)c1nccc(OC)c1O [compound 114] |  |  |  |  | 0 to 80 | 0 to 80 | 0 to 80 |  |
| CCOCC(=O)OCOc1c(OC)ccnc1C(=O)N[C@@H](C)C(=O)O[C@@H](C)[C@@H](COCc1ccc(F)cc1)Cc1ccc(F)cc1 [compound 253] | 80 to 100 | 0 to 80 | 80 to 100 | 0 to 80 |  |  |  |  |
| CC[C@H](NC(=O)c1nccc(OC)c1O)C(=O)OC(C)C(Cc1ccccc1)Cc1ccccc1 (some centres unmarked) [compound 149] |  |  |  |  | 80 to 100 |  |  | 80 to 100 |
| CC[C@H](Cc1ccccc1)[C@@H](Cc1ccc(OC(F)(F)F)cc1)[C@H](C)OC(=O)[C@H](C)NC(=O)c1nccc(OC)c1O [compound 112] |  |  |  |  | 0 to 80 |  |  | 0 to 80 |
| CCCC[C@@H]([C@H](C)OC(=O)[C@H](C)NC(=O)c1nccc(OC)c1O)[C@H](CC)Oc1ccccc1 [compound 115] |  |  |  |  | 80 to 100 | 80 to 100 | 80 to 100 |  |
| CC[C@H](Cc1ccccc1)[C@@H](Cc1ccc(F)cc1)[C@H](C)OC(=O)[C@H](C)NC(=O)c1nccc(OC)c1O [compound 103] |  |  |  |  | 80 to 100 | 0 to 80 | 0 to 80 | 80 to 100 |
| COc1ccnc(C(=O)N[C@@H](C)C(=O)O[C@@H](C)[C@H](Cc2ccc(F)cc2)c2ccccc2)c1OCOC(C)=O [compound 222] | 80 to 100 |  | 80 to 100 | 80 to 100 |  |  |  |  |
| COc1ccnc(C(=O)N[C@@H](C)C(=O)O[C@@H](C)[C@H](Cc2ccc(F)cc2)C(C)(C)OCc2ccccc2)c1O [compound 133] |  |  |  |  | 80 to 100 |  | 0 to 80 | 0 to 80 |
| CCCOC[C@@H](Cc1ccccc1)[C@H](C)OC(=O)C(C)(C)NC(=O)c1nccc(OC)c1OCOC(C)=O [compound 171] |  |  |  |  |  | 0 to 80 | 0 to 80 | 0 to 80 |
| CC[C@H](CC1CC1)[C@@H](Cc1ccccc1)[C@H](C)OC(=O)[C@H](C)NC(=O)c1nccc(OC)c1OCOC(C)=O [compound 173] | 80 to 100 | 0 to 80 | 80 to 100 | 80 to 100 |  |  |  |  |
| CCCO[C@H](CC)[C@@H](Cc1ccccc1)[C@H](C)OC(=O)[C@@H](C)NC(=O)c1nccc(OC)c1OCOC(C)=O [compound 165] |  |  |  |  | 0 to 80 | 80 to 100 | 0 to 80 | 80 to 100 |
| C=C[C@H](Cc1ccc(C(F)(F)F)cc1)[C@@H](Cc1ccc(F)cc1)[C@H](C)OC(=O)CNC(=O)c1nccc(OC)c1OC(C)=O [compound 180] | 0 to 80 |  | 0 to 80 |  |  |  |  |  |
| CCCO[C@@H](CC)[C@@H](Cc1ccccc1)[C@H](C)OC(=O)[C@H](CC)NC(=O)c1nccc(OC)c1OCOC(C)=O [compound 164] | 80 to 100 | 80 to 100 | 0 to 80 | 0 to 80 | 80 to 100 | 80 to 100 | 80 to 100 | 80 to 100 |
| COc1ccnc(C(=O)N[C@@H](C)C(=O)OC(C)C(Cc2ccc(F)cc2)Cc2ccc(F)cc2)c1O (some centres unmarked) [compound 151] |  |  |  |  | 80 to 100 |  |  | 80 to 100 |
| COc1ccnc(C(=O)N[C@@H](C)C(=O)O[C@@H](C)[C@H](CCC(C)C)c2ccccc2)c1OC(C)=O [compound 210] | 80 to 100 | 0 to 80 | 80 to 100 | 80 to 100 |  |  |  |  |
| COc1ccnc(C(=O)N[C@@H](C)C(=O)O[C@@H](C)[C@H](Cc2ccccc2)C(C)(C)OC)c1O [compound 137] |  |  |  |  |  | 0 to 80 | 0 to 80 |  |
| COc1ccnc(C(=O)N[C@@H](C)C(=O)O[C@@H](C)[C@H](Cc2ccccc2)C(C)(C)OCc2ccccc2)c1O [compound 134] |  |  |  |  | 80 to 100 | 0 to 80 | 0 to 80 | 80 to 100 |
| COc1ccnc(C(=O)N[C@@H](C)C(=O)OC(C)C(Cc2ccccc2)Cc2ccccc2)c1OC(C)=O (some centres unmarked) [compound 260] | 80 to 100 | 0 to 80 | 80 to 100 | 0 to 80 |  |  |  |  |
| COc1ccnc(C(=O)N[C@@H](C)C(=O)OC(C)C(Cc2ccccc2)Cc2ccccc2)c1O (some centres unmarked) [compound 147] |  |  |  |  | 80 to 100 |  |  | 80 to 100 |
| CCCC[C@H](c1ccccc1)[C@H](C)OC(=O)[C@H](C)NC(=O)c1nccc(OC)c1OCOC(C)=O [compound 199] | 80 to 100 | 80 to 100 | 80 to 100 | 80 to 100 |  |  |  |  |
| COc1ccnc(C(=O)N[C@@H](C)C(=O)O[C@@H](C)[C@H](CCC(C)C)c2ccccc2)c1O [compound 123] |  |  |  |  |  | 0 to 80 | 80 to 100 |  |
| C=C[C@H](Cc1ccc(C(F)(F)F)cc1)[C@@H](Cc1ccc(F)cc1)[C@H](C)OC(=O)[C@H](C)NC(=O)c1nccc(OC)c1OC(C)=O [compound 179] | 80 to 100 |  | 0 to 80 | 80 to 100 |  |  |  |  |
| COc1ccnc(C(=O)N[C@@H](C)C(=O)OC(C)C(Cc2cccc(F)c2)Cc2cccc(F)c2)c1OC(C)=O (some centres unmarked) [compound 263] | 0 to 80 | 0 to 80 | 0 to 80 | 0 to 80 |  |  |  |  |
| CCCC[C@H](c1ccccc1)[C@H](C)OC(=O)[C@H](C)NC(=O)c1nccc(OC)c1OC(=O)C(C)C [compound 198] | 0 to 80 | 0 to 80 | 80 to 100 | 80 to 100 |  |  |  |  |
| CCC[C@@H](Cc1ccccc1)[C@H](C)OC(=O)[C@H](C)NC(=O)c1nccc(OC)c1OCOC(C)=O [compound 184] | 80 to 100 | 80 to 100 | 80 to 100 | 80 to 100 |  |  |  |  |
| COc1cccc(CC(Cc2cccc(OC)c2)[C@H](C)OC(=O)[C@H](C)NC(=O)c2nccc(OC)c2OC(C)=O)c1 [compound 270] | 80 to 100 | 0 to 80 | 0 to 80 |  |  |  |  |  |
| CCCO[C@H](CC)[C@@H](Cc1ccccc1)[C@H](C)OC(=O)[C@@H](C)NC(=O)c1nccc(OC)c1O [compound 96] |  |  |  |  | 80 to 100 | 80 to 100 | 0 to 80 | 80 to 100 |
